For one assay, the system named is Bacillus megaterium. Briefly: microbe, parasite or virus in culture. Format: cell-based. The following applies: Bacillus megaterium; MH medium, 24 h at 35 °C, OD 595 nm <10% of growth control; triplicates. As to the method:
(§1) The synthesized peptides were screened for antibacterial activity against five strains of G+ bacteria: B. subtilis (Bs, ATCC 23857), C. glutamicum (Cg, ATCC 13032), S. aureus (Sa, ATCC 9144), Micrococcus luteus (Ml), B. megaterium (Bm) (the last two were obtained from professor Olaf B. Styrvold, UiT The Arctic University of Norway).
(§2) Two strains of G- bacteria, P. aeruginosa (Pa, ATCC 27853) and E. coli (Ec, ATCC 25922), were also used. Cultures stored at -80 °C in glycerol were transferred to Müller–Hinton plates (MH, Difco Laboratories, Detroit, MI, USA) and incubated for 24 h at 35 °C. Colonies of each strain were transferred to 5 mL liquid MH medium and left shaking (600 rpm) at room temperature overnight. An aliquot of actively growing bacteria (20 µL) was inoculated in 5 mL MH medium and left shaking for 2 h at room temperature. In order to have a sensitive bioassay, the bacterial cultures were diluted with medium to only 2.5–3 × 10^4 bacteria/mL and an aliquot of 50 µL was added to each well in 96 microwell plates (Thermo Fisher Scientific, Roskilde, Denmark) preloaded with peptide solution (50 µL). The antibacterial assays were performed as previously described. The microtiter plates were incubated for 24 h at 35 °C with optical density (595 nm) recorded every hour using an Envision 2103 multilabel reader, controlled by a Wallac Envision manager (PerkinElmer, Waltham, MA, USA). The minimum inhibitory concentration (MIC) was defined as the sample concentration showing an optical density less than 10% of the negative (growth) control, consisting of bacteria and MQ-H2O. Oxytetracycline (concentrations ranging from 20–0.02 µg/mL, Sigma-Aldrich) and indolicidin (concentration ranging from 200–0.2 µg/mL, Sigma-Aldrich) served as a positive (inhibition) control. The synthetic peptides were tested for antibacterial activity in concentrations ranging from 250 to 0.5 µg/mL in two-fold dilutions. All tests were performed in triplicates.

Another assay has as its system Micrococcus luteus. As to the kind of experiment: microbe, parasite or virus in culture. It counts as cell-based. The following applies: Micrococcus luteus; MH medium, 24 h at 35 °C, OD 595 nm <10% of growth control; triplicates. As to the method:
as §1, §2

Another assay deals with Aureobasidium pullulans. Briefly: microbe, parasite or virus in culture. The following applies: potato dextrose broth with 2% glucose, room temperature 48 h, OD 600 nm, >90% inhibition; triplicate. It counts as cell-based. On the procedure: (§3) StAMP-1–11 were screened for antifungal activity against C. albicans (Ca, ATCC 10231), A. pullulans (Ap) and Rhodotorula sp. (Rh) (the last two were obtained from professor Arne Tronsmo, The Norwegian University of Life Sciences, Ås, Norway). The antifungal assay was performed as previously described with a few modifications. Briefly, fungal spores were dissolved in potato dextrose broth (Difco Laboratories) with 2% D(+)-glucose (Merck, Darmstadt, Germany) to a concentration of 4 × 10^5 spores/mL. The spores (50 µL) were inoculated on 96 microwell plates (Thermo Fisher Scientific) containing the synthetic peptides (50 µL) and controls (water or antibiotic). The peptides were diluted in MQ-H2O at final concentrations ranging from 250–3.9 µg/mL in two-fold serial dilutions. Triclosan (Sigma-Aldrich, Steinheim, Germany) was used as a positive (antifungal) control (32–0.25 µg/mL), and MQ-H2O as a negative (growth) control. Cultures were grown in room temperature for 24 h (Ca) and 48 h (Ap and Rh). Growth inhibition was determined by measuring OD values at 600 nm by a microplate reader (Synergy H1 Hybrid Multi-Mode Reader, BioTek, Winooski, VT, USA). […] All experiments were done in triplicate.

The subject of assay [1] is Candida albicans (ATCC 10231). As to the kind of experiment: microbe, parasite or virus in culture. It counts as cell-based. The following applies: potato dextrose broth with 2% glucose, room temperature 24 h, OD 600 nm, >90% inhibition; triplicate. On the procedure: as §3
Another assay has as its system Rhodotorula sp. As to the kind of experiment: microbe, parasite or virus in culture. Format: cell-based. The conditions noted are these: potato dextrose broth with 2% glucose, room temperature 48 h, OD 600 nm, >90% inhibition; triplicate. On the procedure:
as §3

In assay [2] the test system is Bacillus subtilis (ATCC 23857). The conditions noted are these: turgencin A data ref Hansen et al. [24]; cited from earlier work. From the text:
Table 3 Antimicrobial activities of turgencin A and the synthesized StAMP-1–11 peptides. | column: Gram-Pos / Bs

Assay [3] relates to Corynebacterium glutamicum (ATCC 13032). The conditions noted are these: turgencin A data ref Hansen et al. [24]; cited from earlier work. From the text:
Table 3 Antimicrobial activities of turgencin A and the synthesized StAMP-1–11 peptides. | column: Gram-Pos / Cg

The test system of assay [4] is Staphylococcus aureus (ATCC 9144). The conditions noted are these: turgencin A data ref Hansen et al. [24]; cited from earlier work. The source says: Table 3 Antimicrobial activities of turgencin A and the synthesized StAMP-1–11 peptides. | column: Gram-Pos / Sa
The test system of assay [5] is Escherichia coli (ATCC 25922). The conditions noted are these: turgencin A data ref Hansen et al. [24]; cited from earlier work. The source says:
Table 3 Antimicrobial activities of turgencin A and the synthesized StAMP-1–11 peptides. | column: Gram-Neg / Ec

The subject of assay [6] is Pseudomonas aeruginosa (ATCC 27853). The following applies: turgencin A data ref Hansen et al. [24]; cited from earlier work. The source says: Table 3 Antimicrobial activities of turgencin A and the synthesized StAMP-1–11 peptides. | column: Gram-Neg / Pa

Results on 1 molecule are retold here after PMC7432809, “Antimicrobial Activity of Small Synthetic Peptides Based on the Marine Peptide Turgencin A: Prediction of Antimicrobial Peptide Sequences in a Natural Peptide and Strategy for Optimization of Potency” (International Journal of Molecular Sciences, 2020).

Where a SMILES comes first, the peptide text is derived from it. Bridges are numbered along the chain shown (N, C = ends).

`CSCC[C@@H]1NC(=O)[C@H](CCCCN)NC(=O)[C@@H](NC(=O)[C@H](C)NC(=O)[C@H](C)NC(=O)[C@H](CCCCN)NC(=O)[C@@H](NC(=O)[C@H](CCCCN)NC(=O)[C@@H]2CCCN2C(=O)CN)[C@@H](C)O)CSSC[C@@H](C(=O)N[C@@H](CC(=O)O)C(=O)N[C@@H](C)C(=O)N[C@H](C(N)=O)C(C)C)NC(=O)CNC(=O)[C@H](CC(C)C)NC(=O)[C@H](CCC(=O)O)NC(=O)[C@@H]2CSSC[C@H](NC(=O)[C@H](C)NC1=O)C(=O)N[C@@H](CCCCN)C(=O)N[C@@H](CC(C)C)C(=O)N[C@@H](C)C(=O)N[C@@H]([C@@H](C)O)C(=O)N[C@H]1CSSC[C@H](NC(=O)[C@H](CCCCN)NC(=O)[C@H](Cc3c[nH]c4ccccc34)NC(=O)CNC(=O)CNC(=O)[C@@H]3CCCN3C(=O)[C@H](CCCCN)NC(=O)[C@H](CCCCN)NC(=O)CNC1=O)C(=O)N[C@@H](CCCCN)C(=O)N[C@@H](CC(C)C)C(=O)N2` [Turgencin A] (H-GPKTKAACKMACKLATCGKKPGGWKCKLCELGCDAV-NH2; disulfide 8-33, 12-29, 17-26; N-terminus assumed): in the assay on Bacillus megaterium, the “Antimicrobial Activity (MIC) Bm” value was found to be 0.5 mg/L. The “Antimicrobial Activity (MIC) Ml” value with Micrococcus luteus was 8.0 mg/L. In addition, the “Antimicrobial Activity (MIC) Ap” value with Aureobasidium pullulans stood at 92.6 mg/L. Moreover, in [1], the “Antimicrobial Activity (MIC) Ca” value was 46.3 mg/L. Moreover, the “Antimicrobial Activity (MIC) Rh” value with Rhodotorula sp. came to 23.2 mg/L. In addition, the “Antimicrobial Activity (MIC) Bs” value in [2] is 1.5 mg/L. Moreover, the “Antimicrobial Activity (MIC) Cg” value in assay [3] is 1.5 mg/L. In addition, the “Antimicrobial Activity (MIC) Sa” value in [4] is 23.3 mg/L. In assay [5], the “Antimicrobial Activity (MIC) Ec” value is 3.0 mg/L. The “Antimicrobial Activity (MIC) Pa” value in assay [6] was 5.9 mg/L.
